According to US8512695B2 (priority 2008, dated 2013):
Where two headings read alike, the source gives them in different places.

Key:
adipocytes of fat grafts = experiment: Apoptosis quantification in explanted fat grafts (Mito-PT / Apo-One fluorescent labels, plate reader); assay type: in vivo; details: for apoptosis level (words): early engraftment period, first ten days
Description: Apoptosis Identification. Immunochemistry apoptosis specific fluorescent labels FLIVO™ and MT Mito™ were used to identify apoptosis in adipocytes. Fat grafts were explanted, treated with Blendzyme (Roche Applied Science Liberase Blendzyme 3) at 38° C. for 20 minutes, and passed through a 100 micron cell strainer (to remove extra-cellular stromal elements left behind after digestion). These cells were then incubated for one hour at 38° C., and washed once following labeling. Afterwards these cells were placed into 96 well black plates, and read on a plate reader (Molecular Devices, SpectraMax M2) at their dye-specific emission and excitation wavelengths (FLIVO-red ex 565/em>590, MITO-PT ex 488/em green 530, red 590).
Fat Processing. Lipoaspirate was taken directly from the operating room. It was separated into 30 cc aliquots, and washed once with an equal volume of normal saline to remove blood and cellular debris. Afterwards, the tubes were centrifuged at 200G and the middle layer was separated and treated with various agents. These agents were treated in 30 cc washes, with 30 cc of fat for 30 minutes at 37° C. This incubation was chosen to minimize ischemic time while allowing for sufficient mixing with treatment agents. Following incubation and washing, the fat was again centrifuged at 200G. The middle fat layer was again separated and placed in 1.0 cc, 1.0 g aliquots for injection into the flanks of nude mice. This was performed under IRB approval for use of de-identified discarded tissue. Of note, the harvesting cannulas and harvesting pressures varied case by case and surgeon by surgeon. Fat was engrafted into animals within two hours of collection from the operating room in order to minimize warm ischemia time.
Experimental Model. Nude mice were implanted with 1.0 cc/1.0 g (+/−0.01 gm) fat grafts in a single lobule. These mice were injected with a 14 gauge angio-catheter to simulate a clinically relevant 1 cc injection. Two lobules were implanted into bilateral flanks of each nude mouse used in the study. The 14 gauge angio-catheter was chosen to minimize fat graft trauma during injection. Many clinicians use 16 and 14 gauge catheters currently for fat grafting, thus this size catheter was used to approximate clinical practice.
Initially, the lobules were explanted daily and measured for weight and apoptotic activity. After early curves were generated, lobules were explanted on days 3, 6, and 9, for the primary measurement of apoptosis levels. Additionally these samples were weighed, sent for histology, and measured for DNA content. Endpoints in the first ten days were compared to endpoints at six weeks to determine whether graft performance can be accurately predicted by early apoptosis and cell death.
Each experiment consisted of an early group and a late group of mice. Each group was injected with the same fat from a single patient on a single day. For the early time points two animals were euthanized on each sampling day for each group (n=4 lobules per each early time point). Additionally, animals from these same groups were then euthanized at six weeks for examination of late endpoints (8 animals generating 16 lobules were used for each group of late time points). Once an animal was euthanized, both lobules were collected analyzed, and the animal was removed from the study.
Apoptosis Quantification. Initially, lobules were explanted daily and measured for levels of apoptosis using Mito-PT. After daily testing, it was noted that peak levels of apoptosis occurred between days 5-7, and then trended back down. These values fell approximately in a bell shaped curve. Once this curve was determined, subsequent samples were tested on days 0, 3, 6, and 9, for a sampling of early apoptosis (see FIG. 7).

fat grafts [1] = experiment: Weight / reabsorption by weight of 1.0 cc/1.0 g fat grafts; assay type: in vivo, nude mice
Description: (§1) Fat Processing. Lipoaspirate was taken directly from the operating room. It was separated into 30 cc aliquots, and washed once with an equal volume of normal saline to remove blood and cellular debris. Afterwards, the tubes were centrifuged at 200G and the middle layer was separated and treated with various agents. These agents were treated in 30 cc washes, with 30 cc of fat for 30 minutes at 37° C. This incubation was chosen to minimize ischemic time while allowing for sufficient mixing with treatment agents. Following incubation and washing, the fat was again centrifuged at 200G. The middle fat layer was again separated and placed in 1.0 cc, 1.0 g aliquots for injection into the flanks of nude mice. […] Fat was engrafted into animals within two hours of collection from the operating room in order to minimize warm ischemia time.
Each experiment consisted of an early group and a late group of mice. […] For the early time points two animals were euthanized on each sampling day for each group (n=4 lobules per each early time point). Additionally, animals from these same groups were then euthanized at six weeks for examination of late endpoints (8 animals generating 16 lobules were used for each group of late time points). Once an animal was euthanized, both lobules were collected analyzed, and the animal was removed from the study.

fat grafts [2] = assay type: in vivo
Description: as §1
Experimental Model. Nude mice were implanted with 1.0 cc/1.0 g (+/−0.01 gm) fat grafts in a single lobule. […]
Initially, the lobules were explanted daily and measured for weight and apoptotic activity. […] Additionally these samples were weighed, sent for histology, and measured for DNA content. […]
Each experiment consisted of an early group and a late group of mice. […] Once an animal was euthanized, both lobules were collected analyzed, and the animal was removed from the study.

[3] = Day 3, comparison experiments of FIG. 8
[4] = Day 6, comparison experiments of FIG. 8
[5] = agents tested for potential additive effects with P188, saline in this group 0.74 g

CCCCCCCCCCCCCCCC[N+](C)(C)C.[Cl-] [CTA, cetyltrimethylammonium chloride]
apoptosis level (adipocytes of fat grafts; [3]): 35,338 RFUs
apoptosis level (adipocytes of fat grafts; [4]): 35,338 RFUs
apoptosis level (words) (adipocytes of fat grafts): higher levels of apoptosis than normal saline controls at earlier time points

CCCCCCCCCCCCCCCC[N+](C)(C)C.[Br-] [HCTA, Hexadecyltrimethylammonium bromide]
apoptosis level (adipocytes of fat grafts; [3]): 31,076 RFUs
apoptosis level (adipocytes of fat grafts; [4]): 41,037 RFUs
apoptosis level (words) (adipocytes of fat grafts): higher levels of apoptosis than normal saline controls at earlier time points

Oc1ccc(C=Cc2cc(O)cc(O)c2)cc1 [resveratrol]
weight at six weeks (fat grafts [1]; [5]): 0.73 ± 0.03 g
overall effect on / toxicity to fat grafts (fat grafts [2]; mouse, in vivo): toxic

CC(C)CCC[C@@H](C)[C@H]1CC[C@H]2[C@@H]3CC=C4C[C@@H](O)CC[C@]4(C)[C@H]3CC[C@]12C [cholesterol]
weight at six weeks (fat grafts [1]; [5]): 0.73 ± 0.04 g
overall effect on / toxicity to fat grafts (fat grafts [2]; conclusion over early and late endpoints): toxic

O=C1O[C@H]([C@@H](O)CO)C(O)=C1O [vitamin C, ascorbic acid]
apoptosis level (words) (adipocytes of fat grafts): high levels of apoptosis

O=C(O)CCCC[C@@H]1CCSS1 (racemic) [lipoic acid]
apoptosis level (words) (adipocytes of fat grafts): decreased apoptosis during the engraftment period when compared to saline treated controls
weight at six weeks (fat grafts [1]; 1.0 cc/1.0 g graft implanted, six weeks): 0.65 ± 0.09 g
reabsorption by weight (fat grafts [1]; six weeks): statistically significant differences in reabsorption

Phosphatidylcholine [PC]
apoptosis level (adipocytes of fat grafts; [3]): 52,000 RFUs
apoptosis level (words) (adipocytes of fat grafts; listed as Phosphatidylcholine): elevated levels of apoptosis compared to P188
apoptosis level (words) (adipocytes of fat grafts; listed as phosphatidylcholine): some protective effect, but not to the same magnitude as P188
